For 21 compounds, TGI results are on record in PubChem BioAssay (NCI).

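96-well plates; 48 h exposure; 5 concentrations. Endpoints by linear interpolation between flanking doses. Not reached: highest tested concentration assigned. At the TGI there is no net growth.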

Common to all, as to test: inhibition of tumour cell growth, NCI panel, 48 h
In assay [1] the test system is NCI/ADR-RES ovarian.
For assay [2], the system named is K-562 leukemia.
For assay [3], the system named is UO-31 renal.
In assay [4] the test system is SW-620 colon.
Assay [5] has as its system NCI-H226 lung.
Assay [6] relates to OVCAR-3 ovarian.
Assay [7] relates to SK-MEL-28 melanoma.
Assay [8] concerns EKVX NSCLC.
In assay [9] the test system is PC-3 prostate.
In assay [10] the test system is 786-0 renal.
In assay [11] the test system is RXF 393 renal.
The subject of assay [12] is MALME-3M melanoma.
Assay [13] concerns RPMI-8226 leukemia.

For `c1ccc(N=C2c3ccsc3C(=Nc3ccccc3)c3ccsc32)cc1`, the TGI in assay [1] was 14.4 µM; in [2], 10.4 µM; in assay [3] it was 3.74 µM; in assay [4] it was 3.93 µM; in assay [5] it was 11.4 µM; in [6], 6.55 µM. The TGI in assay [7] is 3.97 µM; in assay [8] it was 4.31 µM; in [9], 9.44 µM; in assay [10], 6.25 µM; in [11] it was 3.52 µM; in [12], 0.921 µM. The TGI in [13] came out at 11.7 µM.
Consider `O=C1c2c(Br)sc(Br)c2[C@@H](NC(=O)C(F)(F)F)C1Br` (some centres not stated), for which the TGI in assay [1] was 11 µM; in assay [2] it was 4.17 µM; in assay [3], 12.5 µM; in assay [4], greater than 21.9 µM; in assay [5], 15.1 µM; in assay [6], 9.99 µM. Besides, the TGI in [7] came to 8.51 µM; in assay [8] it was 11.6 µM; in assay [9], 15.1 µM; in assay [10], 5.13 µM; in assay [11], 5.22 µM; in [12], 4.88 µM. Further, the TGI in assay [13] amounted to 5.92 µM.
Take `CCc1ccc2c(c1)N(CC(C)CN(C)C)c1ccccc1S2` (configuration not stated): the TGI in [1] was 17.8 µM; in assay [2], 3.5 µM; in assay [3], 10.3 µM; in assay [4] it was 14.6 µM; in [5], 25.5 µM; in [6], 12.4 µM. Besides, the TGI was found to be 5.45 µM in assay [7]; 24.3 µM in assay [8]; 17.1 µM in assay [9]; 12.2 µM in assay [10]; 10.3 µM in assay [11]; 8.37 µM in assay [12]. The TGI in assay [13] was determined as 6.28 µM.
Turning to `COc1ccc2c3c1O[C@H](c1ccc(O)cc1)[C@H]3[N+](C)(C)CC2`, the TGI in [1] is greater than 100 µM; in [2], 88.2 µM; in assay [3] it was greater than 100 µM; in assay [4], greater than 100 µM; in [5] it was greater than 100 µM; in assay [6], greater than 100 µM. In addition, the TGI in assay [7], in assay [8], in [9], in assay [10], in [11] and in assay [12] was greater than 100 µM throughout. Further, the TGI in assay [13] is greater than 100 µM.
`COc1cc(Oc2nc3ccc(C(F)(F)F)cc3nc2-c2ccccc2)cc(OC)c1OC`: the TGI in assay [1] was greater than 100 µM; in [2] it was greater than 100 µM; in assay [3], greater than 100 µM; in assay [5] it was greater than 100 µM; in [6], 97.1 µM; in assay [7] it was greater than 100 µM. Also, the TGI in assay [8] is greater than 100 µM; in assay [9], greater than 100 µM; in [10] it was 12.7 µM; in [11] it was 45.7 µM; in assay [12], greater than 100 µM; in assay [13], greater than 100 µM.
On to `CCCc1[nH]c2ccccc2c1-c1c(CCC)[nH]c2ccccc12`, for which the TGI was 51.8 µM in [1]; greater than 100 µM in [2]; 34.7 µM in [3]; 23.7 µM in [4]; 39.1 µM in [5]; 21.4 µM in assay [6]. For the same compound, the TGI stood at 21.6 µM in assay [7]; 30.9 µM in [8]; 23.4 µM in assay [9]; 31.4 µM in [10]; 37.6 µM in assay [11]; 32.7 µM in [12]. Besides, the TGI in assay [13] was greater than 100 µM.
For `Clc1ccc2oc(CCc3ccccc3)nc2c1`, the TGI is greater than 100 µM in assay [1]; greater than 100 µM in assay [2]; greater than 100 µM in assay [3]; greater than 100 µM in [4]; greater than 100 µM in assay [5]; 85.1 µM in [6]. The TGI was greater than 100 µM in assay [7]; greater than 100 µM in assay [8]; greater than 100 µM in assay [9]; greater than 100 µM in assay [10]; 99.3 µM in [11]; greater than 100 µM in [12]. Besides, in [13], the TGI is greater than 100 µM.
Turning to `CC(=O)OCC1OC(OCCCOP(=S)(OCCC#N)OCC2OC(n3ccc(N)nc3=O)C(OC(=O)c3ccccc3)C2OC(=O)c2ccccc2)C(OC(C)=O)C(OC(C)=O)C1OC(C)=O` (configuration not stated), the TGI in [1], in assay [2], in assay [3], in assay [4], in assay [5] and in assay [6] was greater than 100 µM in each case. For the same compound, the TGI in assay [7], in assay [8], in [9], in assay [10], in [11] and in assay [12] was greater than 100 µM throughout. Moreover, in [13], the TGI is greater than 100 µM.
For the compound `COC(=O)C(Cc1c[nH]c2ccccc12)N=C1Nc2ccncc2S(=O)(=O)N1c1cccc(OC(C)C)c1` (configuration not stated), the TGI in [1], in assay [2], in assay [3], in assay [4], in assay [5] and in assay [6] was greater than 100 µM throughout. Moreover, the TGI in assay [7], in [8], in [9], in assay [10], in assay [11] and in [12] was greater than 100 µM in each case. In addition, the TGI in [13] turned out to be 54.4 µM.
Take `CC(C)(C)OC(=O)NCCCCC(N)NC(=O)c1ccccc1` (configuration not stated): the TGI in assay [1], in [2], in assay [3], in [4], in [5] and in [6] was greater than 100 µM each time. Further, the TGI in assay [7], in [8], in assay [9], in [10], in [11] and in [12] was greater than 100 µM each time. The TGI in assay [13] was greater than 100 µM.
As for `C=CCC1(C)CCCN(Cc2ccccc2)C1=O` (configuration not stated), the TGI in [1], in [2], in assay [3], in assay [4], in assay [5] and in [6] was greater than 10 µM throughout. Moreover, the TGI in [7], in [8], in assay [9], in assay [10], in [11] and in [12] was greater than 10 µM each time. In assay [13], this compound had a TGI greater than 10 µM.
Consider `COc1cccc(C(=O)C#Cc2cnc(OC)nc2OC)c1`, for which the TGI in assay [1] is 4.83 µM; in [2], greater than 100 µM; in assay [3] it was 2.67 µM; in assay [4] it was 1.94 µM; in assay [5], 2.75 µM; in assay [6], 3.62 µM. Also, the TGI in assay [7] was 4.22 µM; in assay [8] it was 3.9 µM; in assay [9], 2.88 µM; in [10], 3.61 µM; in assay [11], 1.39 µM; in [12] it was 3.23 µM. For the same compound, the TGI in assay [13] was 6.43 µM.
With `CSc1c(C#N)c(N)n(-c2ccc(Cl)cc2)c(=O)c1C#N`, the TGI in assay [1], in assay [2], in assay [3], in assay [4], in assay [5] and in assay [6] was greater than 100 µM throughout. Also, the TGI in assay [7], in assay [8], in assay [9], in assay [10], in assay [11] and in assay [12] was greater than 100 µM in each case. In addition, in assay [13], the TGI is greater than 100 µM.
Regarding `O=[N+]([O-])c1ccc(C(O)(C#CCN2CCCC2)c2ccccc2)cc1` (configuration not stated), the TGI is greater than 100 µM in [1]; 42.6 µM in assay [2]; greater than 100 µM in [3]; greater than 100 µM in assay [4]; greater than 100 µM in assay [5]; greater than 100 µM in [6]. Moreover, the TGI in [7] is 34 µM; in assay [8], greater than 100 µM; in assay [9], greater than 100 µM; in assay [10] it was greater than 100 µM; in assay [11], greater than 100 µM; in assay [12] it was 30.4 µM. In [13], this compound showed a TGI of 61.9 µM.
Regarding `CC(C)(C)NC(=O)CCC1C(C(=O)NC(C)(C)C)C2(Cl)C(Cl)=C(Cl)C1(Cl)C2(Cl)Cl` (configuration not stated), the TGI in [1], in assay [2], in assay [3], in [4], in [5] and in assay [6] was greater than 100 µM in each case. Besides, the TGI in assay [7], in assay [8], in assay [9], in assay [10], in assay [11] and in assay [12] was greater than 100 µM throughout. This compound gave a TGI in assay [13] greater than 100 µM.
On to `CN(C)CCc1c2c(nc3ccccc13)C(=O)c1cccnc1C2=O`, for which the TGI is 1.03 µM in assay [1]; greater than 29.1 µM in assay [2]; 1.88 µM in [3]; 1.91 µM in assay [4]; 0.473 µM in [5]; 1.34 µM in assay [6]. Moreover, the TGI in assay [7] was 1.76 µM; in [8], 5.73 µM; in [9], 3.02 µM; in assay [10], 0.759 µM; in assay [11], 1.26 µM; in [12] it was 1.79 µM. In addition, the TGI in [13] came to 1.82 µM.
On to `N#Cc1nc(C#N)n(S(=O)(=O)c2ccccc2)c1NS(=O)(=O)c1ccccc1`, for which the TGI was greater than 100 µM in assay [1]; greater than 100 µM in assay [2]; 79.6 µM in assay [3]; greater than 100 µM in [4]; greater than 100 µM in [5]; greater than 100 µM in [6]. Further, the TGI in assay [7], in [8], in assay [9], in assay [10], in assay [11] and in assay [12] was greater than 100 µM throughout. The TGI in assay [13] was greater than 100 µM.
Consider `O=c1[nH]nc(-c2ccccc2)n1O`, for which the TGI in assay [1], in assay [2], in [3], in [4], in assay [5] and in [6] was greater than 100 µM throughout. Besides, the TGI in assay [7], in [8], in assay [9], in [10], in [11] and in assay [12] was greater than 100 µM each time. Besides, the TGI in [13] is greater than 100 µM.
With `c1ccc(CC2COC(c3cccs3)=N2)cc1` (configuration not stated), the TGI in assay [1], in assay [2], in assay [3], in assay [4], in [5] and in assay [6] was greater than 100 µM each time. The TGI in assay [7], in assay [8], in assay [9], in [10], in [11] and in [12] was greater than 100 µM each time. In [13], this compound returned a TGI greater than 100 µM.
For the compound `N#C/C(C(=S)NCc1ccccc1)=C(/N)N1CCCC1`, the TGI in assay [1], in assay [2], in assay [3], in [4], in [5] and in assay [6] was greater than 100 µM throughout. Also, the TGI in assay [7], in [8], in assay [9], in [10], in assay [11] and in [12] was greater than 100 µM throughout. In addition, the TGI in [13] was greater than 100 µM.
Turning to `CN(CCCNC(=O)c1cc(-c2ccccc2)nc2ccccc12)CCCNC(=O)c1cc(-c2ccccc2)nc2ccccc12`, the TGI in assay [1] is 11.1 µM; in assay [2], 4.69 µM; in assay [3] it was 6.52 µM; in [4], 3.38 µM; in assay [5] it was 10.7 µM; in [6], 9.14 µM. The TGI amounted to 3.27 µM in assay [7]; 17.2 µM in assay [8]; 13 µM in assay [9]; 3.18 µM in [10]; 16 µM in [11]; 3.39 µM in [12]. The compound also displayed a TGI in assay [13] of 10.6 µM.
